What was measured:
Assay type in all cases: in vivo
Echinochloa crus-galli = experiment: Test Example 7: herbicidal effect test by soil application in upland field (low dose); details: Echinochloa crus-galli, 7.5 g per 10 ares, sprayed one day after sowing, 14 days after application, read-out: weed inhibition rate
In short: (§1)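 Upland soil (alluvial loam) pots, seeds mixed into top 1 cm layer → EC formulation diluted with water, sprayed onto soil 1 d post-sowing, 100 L/10 a → 7.5 g a.i./10 a → inhibition (%) scored at 14 d, n=2.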

Digitaria ciliaris [1] = experiment: as above; details: Digitaria ciliaris, 7.5 g per 10 ares, sprayed one day after sowing, 14 days after application, read-out: weed inhibition rate
In short: as §1

Scirpus juncoides [2] = experiment: Test Example 1: herbicidal effect test by soil application in paddy rice; details: Schoenoplectiella juncoides, soil, 336 h; 120 g active ingredient per 10 ares; applied immediately after sowing, flooded pots; 14 days after application; read-out: weed inhibition rate
In short: (§2)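 Treatment: 120 g active ingredient per 10 ares as a water-diluted emulsifiable concentrate, dropped onto flooded pots immediately after sowing. Thirty seeds per species went 0–1 cm into puddled paddy soil with 16:16:16 fertilizer, with ~3 cm flooding maintained in a glass greenhouse.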

[3] = tested on: Echinochloa crus-galli var. formosensis; experiment: as above; details: Echinochloa crus-galli, soil, 336 h; 120 g active ingredient per 10 ares; applied immediately after sowing, flooded pots; 14 days after application; read-out: weed inhibition rate
In short: as §2

Digitaria ciliaris [4] = experiment: Test Example 8: herbicidal effect test by stem and leaf treatment in upland field (low dose); details: Digitaria ciliaris; 7.5 g per 10 ares; sprayed seven days after sowing, upland soil; 14 days after application; read-out: weed inhibition rate
[5] = tested on: Echinochloa crus-galli var. formosensis; experiment: Test Example 5: herbicidal effect test by soil application in paddy rice (low dose); details: Echinochloa crus-galli, soil, 336 h; 7.5 g per 10 ares; applied immediately after sowing, flooded pots; 14 days after application; read-out: weed inhibition rate
In short: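 Flooded-paddy soil application at low dose (7.5 g a.i. per 10 ares), given by dropper as diluted emulsifiable concentrate directly after sowing weeds 0–1 cm deep. Effect evaluated after 14 days in duplicate.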

Chenopodium album = experiment: Test Example 3: herbicidal effect test by soil application in upland field; details: 120 g per 10 ares, sprayed one day after sowing, 14 days after application, read-out: weed inhibition rate
In short: (§3)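 Weed inhibition (%) was assessed 14 days after treatment, in duplicate per concentration group. Seeds had been mixed into the upper 1 cm of upland alluvial loam, and the soil surface was sprayed one day later with the diluted emulsifiable concentrate at 120 g active ingredient per 10 ares.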

Amaranthus viridis = experiment: as above; details: Amaranthus viridis, 120 g per 10 ares, sprayed one day after sowing, 14 days after application, read-out: weed inhibition rate
In short: as §3

Monochoria vaginalis [6] = experiment: Test Example 1: herbicidal effect test by soil application in paddy rice; details: Pontederia vaginalis, soil, 336 h; 120 g active ingredient per 10 ares; applied immediately after sowing, flooded pots; 14 days after application; read-out: weed inhibition rate
In short: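 Inhibition rate (%) read 14 days after treatment, duplicate pots. Water-diluted emulsifiable concentrate was applied by dropper at 120 g active ingredient/10 ares right after sowing. Seeds (30 per species, 0–1 cm deep) went into puddled paddy soil kept flooded at about 3 cm in a greenhouse.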

Scirpus juncoides [7] = experiment: Test Example 6: herbicidal effect test by application during growth period of paddy rice (low dose); details: Schoenoplectiella juncoides; 7.5 g per 10 ares; applied seven days after sowing, flooded pots; 14 days after application; read-out: weed inhibition rate
In short: (§4)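 Formulated compound, diluted in water, was dropped onto flooded pots seven days post-sowing at 7.5 g a.i. per 10 ares. Seeds had been sown 0-1 cm deep in puddled paddy soil under ~3 cm water in a glass greenhouse. Inhibition (%) assessed at 14 days; duplicate pots.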

Monochoria vaginalis [8] = experiment: as above; details: Pontederia vaginalis; 7.5 g per 10 ares; applied seven days after sowing, flooded pots; 14 days after application; read-out: weed inhibition rate
In short: as §4

C=CCO[C@@H]1C[C@]2(C)O[C@@]1(C(C)C)C[C@H]2OCc1ccccc1F [1-930, (1S,2R,4R,5R)-2-[(2-fluorophenyl)methoxy]-1-methyl-4-isopropyl-5-prop-2-enoxy-7-oxabicyclo[2.2.1]heptane]
≥ 80%: inhibition at 75 g/ha (Echinochloa crus-galli) | inhibition at 75 g/ha (Digitaria ciliaris [1]) | pest or weed control at 1200 g/ha (Scirpus juncoides [2]) | pest or weed control at 1200 g/ha [3] | inhibition at 75 g/ha (Digitaria ciliaris [4]) | inhibition at 75 g/ha [5] | inhibition at 1200 g/ha (Chenopodium album) | inhibition at 1200 g/ha (Amaranthus viridis) | pest or weed control at 1200 g/ha (Monochoria vaginalis [6]) | inhibition at 75 g/ha (Scirpus juncoides [7]) | inhibition at 75 g/ha (Monochoria vaginalis [8])

C#CCO[C@@H]1C[C@]2(C)O[C@@]1(C(C)C)C[C@H]2OCc1ccccc1F [1-931, (1S,2R,4R,5R)-2-[(2-fluorophenyl)methoxy]-1-methyl-4-isopropyl-5-prop-2-ynoxy-7-oxabicyclo[2.2.1]heptane]
≥ 80%: inhibition at 75 g/ha (Echinochloa crus-galli) | inhibition at 75 g/ha (Digitaria ciliaris [1]) | pest or weed control at 1200 g/ha (Scirpus juncoides [2]) | pest or weed control at 1200 g/ha [3] | inhibition at 75 g/ha (Digitaria ciliaris [4]) | inhibition at 75 g/ha [5] | inhibition at 1200 g/ha (Chenopodium album) | inhibition at 1200 g/ha (Amaranthus viridis) | pest or weed control at 1200 g/ha (Monochoria vaginalis [6]) | inhibition at 75 g/ha (Scirpus juncoides [7]) | inhibition at 75 g/ha (Monochoria vaginalis [8])

CC(C)[C@]12C[C@@H](OCc3ccccc3F)[C@](C)(CC1=O)O2 [2-9, (1R,4S,5R)-5-((2-fluorobenzyl)oxy)-1-isopropyl-4-methyl-7-oxabicyclo[2.2.1]heptan-2-one]
≥ 80%: inhibition at 75 g/ha (Echinochloa crus-galli) | inhibition at 75 g/ha (Digitaria ciliaris [1]) | pest or weed control at 1200 g/ha (Scirpus juncoides [2]) | pest or weed control at 1200 g/ha [3] | inhibition at 75 g/ha (Digitaria ciliaris [4]) | inhibition at 75 g/ha [5] | inhibition at 1200 g/ha (Chenopodium album) | inhibition at 1200 g/ha (Amaranthus viridis) | pest or weed control at 1200 g/ha (Monochoria vaginalis [6]) | inhibition at 75 g/ha (Scirpus juncoides [7]) | inhibition at 75 g/ha (Monochoria vaginalis [8])

C=C1C[C@]2(C)O[C@@]1(C(C)C)C[C@H]2OCc1ccccc1C [2-72, (1R,4S,5R)-1-isopropyl-4-methyl-5-((2-methylbenzyl)oxy)-2-methylene-7-oxabicyclo[2.2.1]heptane]
≥ 80%: inhibition at 75 g/ha (Echinochloa crus-galli) | inhibition at 75 g/ha (Digitaria ciliaris [1]) | pest or weed control at 1200 g/ha (Scirpus juncoides [2]) | pest or weed control at 1200 g/ha [3] | inhibition at 75 g/ha (Digitaria ciliaris [4]) | inhibition at 75 g/ha [5] | inhibition at 1200 g/ha (Chenopodium album) | inhibition at 1200 g/ha (Amaranthus viridis) | pest or weed control at 1200 g/ha (Monochoria vaginalis [6]) | inhibition at 75 g/ha (Scirpus juncoides [7]) | inhibition at 75 g/ha (Monochoria vaginalis [8])

C=C1C[C@]2(C)O[C@@]1(C(C)C)C[C@H]2OCc1ccccc1F [2-88, (1R,4S,5R)-5-((2-fluorobenzyl)oxy)-1-isopropyl-4-methyl-2-methylene-7-oxabicyclo[2.2.1]heptane]
≥ 80%: inhibition at 75 g/ha (Echinochloa crus-galli) | inhibition at 75 g/ha (Digitaria ciliaris [1]) | pest or weed control at 1200 g/ha (Scirpus juncoides [2]) | pest or weed control at 1200 g/ha [3] | inhibition at 75 g/ha (Digitaria ciliaris [4]) | inhibition at 75 g/ha [5] | inhibition at 1200 g/ha (Chenopodium album) | inhibition at 1200 g/ha (Amaranthus viridis) | pest or weed control at 1200 g/ha (Monochoria vaginalis [6]) | inhibition at 75 g/ha (Scirpus juncoides [7]) | inhibition at 75 g/ha (Monochoria vaginalis [8])
